Experimental data reported in patent US11273193B2, “Synergistic composition as a promoter of autophagy” (GIULIANI S.P.A., priority 2017, dated 2022).
“Also recorded” adds a separate entry of the source.

Columns and labels:
Type in all cases: cell-based, human
LC3 = assay: Live fluorescent microscopy of LC3-RFP dots (autophagosome accumulation) in U2OS cells; settings: U2OS cells transduced with LC3-RFP, 6 h; biotin 200 ng/ml, Galeopsis dry extract 100 ng/ml, spermidine 10 μM; FIG. 1
Source text: In order to evaluate whether biotin and/or Galeopsis segetum extract may affect autophagy, the inventors monitored the accumulation of autophagosome in cultured U2OS cells by live fluorescent microscopy (Klionsky D J, Abdelmohsen K, Abe A, Abedin M J, Abeliovich H, Acevedo Arozena A, et al. Guidelines for the use and interpretation of assays for monitoring autophagy. Autophagy. 2016; 12(1):1-222). Thus, cells were trasduced with construct containing the autophagy protein, LC3, fused with a Red Fluorescent Protein (RFP). Then, accumulation of fluorescent LC3 dots upon addition of biotin (200 ng/ml) or Galeopsis dry extract (100 ng/ml) was monitored by acquiring images every 30 min for 6 h. Spermidine (10 μM) was adopted as a positive control of an autophagy inducer compound (Pietrocola F, Lachkar S, Enot D, Niso-Santano M, Bravo-San Pedro J, Sica V, et al. Spermidine induces autophagy by inhibiting the acetyltransferase EP300. Cell Death & Differentiation. 2015; 22(3):509-16).
Both biotin and Galeopsis segetum dry extract produced a similar accumulation of LC3-red dots.

SQSTM1/p62 = assay: Live fluorescent microscopy of p62-RFP dots (autophagy-mediated p62 degradation) in U2OS cells; settings: U2OS cells transduced with p62-RFP; FIG. 2
Experimental: U2OS cells were seeded 3000 cells/well in 48-well plates, No. 1.5 Uncoated Coverslip, 6 mm glass diameter, previously coated with gelatin solution, and transduced with 0.2 ul di baculovirus/10 000 cells containing a chimeric protein p62-Red Fluorescent Protein (p62-RFP). At 48 h post-transduction the cells were treated with Spermidine, Biotin, Galeopsis, or vehicle and monitored for 24 h using NIKON Live Cell Imaging microscopy.
Because LC3-RFP dots may also accumulate upon a blockade of the autophagic flux, the autophagy-dependent degradation of the SQSTM1/p62 protein (Klionsky D J, Abdelmohsen K, Abe A, Abedin M J, Abeliovich H, Acevedo Arozena A, et al. Guidelines for the use and interpretation of assays for monitoring autophagy. Autophagy. 2016; 12(1):1-222) was thus monitored. p62 served as a link between LC3 and ubiquitinated substrates (Pankiv S, Clausen T H, Lamark T, Brech A, Bruun J-A, Outzen H, et al. p62/SQSTM1 binds directly to Atg8/LC3 to facilitate degradation of ubiquitinated protein aggregates by autophagy. Journal of Biological Chemistry. […]
Accordingly, the effects of biotin and Galeopsis on autophagy-mediated p62 degradation was evaluated analyzing the number of p62-RFP autophagosomes by live fluorescent microscopy. […] Then, p62 fluorescent dots were monitored upon addition of biotin, Galeopsis, spermidine or vehicle.

p62/SQSTM1 = assay: Immunoblot analysis of p62 protein levels in U2OS cells; settings: immunoblot normalized to GAPDH, spermidine 0.5 μM, biotin 19.91 ng/ml, Galeopsis 7.9 ng/ml
Experimental: U2OS cells were grown to 80% confluence in Dulbecco Modified Eagle's Medium High Glucose (4.5 g/ID-Glucose) containing 4 mM L-glutamine, 10% fetal bovine serum (FBS) and treated with Spermidine (Lot. 2010112716), Galeopsis segetum (IDN 6781), Biotin (Lot. 2014124160) or their combinations. Protein samples were extracted in RIPA buffer as previously reported (De Mei C, Ercolani L, Parodi C, Veronesi M, Vecchio C L, Bottegoni G, et al. Dual inhibition of REV-ERBβ and autophagy as a novel pharmacological approach to induce cytotoxicity in cancer cells. Oncogene. 2015; 34(20):2597-608). p62/SQSTM1 and GAPDH levels were analyzed with anti-p62/SQSTM1 and anti-GADPH specific antibodies. Immunoblot experiments were performed in TBS-T buffer containing 5% bovine serum albumin (BSA). […] and anti-GAPDH antibodies were diluted 1:1000 and 1:50000, respectively. Complementary HPR-conjugated secondary antibodies were diluted 1:10000. Upon reaction with ECL Western blotting detection reagent, chemiluminescent signals were acquired with a LAS-4000 luminescent image analyzer and optical density of specific band signal was calculated with Photoshop image analysis software. GAPDH was adopted as a loading control and GAPDH signals were used to normalize p62 protein levels among different samples.
Immunoblots were repeated at least 4 times in order to express value as mean±SEM. […]

lipidated LC3 (LC3-II) = assay: Immunoblot of lipidated LC3 (LC3-II) in U2OS cells, Example 14; settings: 100 μM, 6 h, normalized by ACTIN, FIG. 3
Experimental: (§1) The levels of lipidated LC3 and SQSTM1 in human U2OS cells treated with equimolar doses of N1-methylspermidine and spermidine were evaluated. […] Specifically cultured human U2OS cells were treated 6 h with vehicle or equimolar doses of spermidine and N^1-methylspermidine (100 μM). The levels of lipidated LC3 (LC3-II) and SQSTM1 were then assessed by immunoblotting analysis as in example 8 with specific antibody. Actin signals were adopted as a loading control. Densitometry analysis of protein signals is reported as relative protein levels normalized by ACTIN. Vehicle sample value was set to 1. Shown as mean±SEM., n=3. *P<0.05 and **P<0.01, compounds versus vehicle.

SQSTM1 = assay: Immunoblot of SQSTM1 in U2OS cells, Example 14; settings: 100 μM, 6 h, normalized by ACTIN, FIG. 3
Experimental: as §1

SMILES | accumulation of fluorescent LC3 dots (autophagosomes) (LC3) | reduction of p62-RFP fluorescent dots / signals versus vehicle (SQSTM1/p62) | Percentage of p62 reduction versus vehicle (% ± SEM) (p62/SQSTM1) | levels of the lipidated LC3-II form compared with vehicle (lipidated LC3 (LC3-II)) | autophagy-mediated degradation of SQSTM1 compared with vehicle (SQSTM1)
O=C(O)CCCC[C@@H]1SC[C@@H]2NC(=O)N[C@@H]21 [Biotin, 5-[(3aS,4S,6aR)-2-oxohexahydro-1H-thieno[3,4-d]imidazole-4-yl]pentanoic acid] | marked accumulation of fluorescent LC3 dots | drastic reduction of p62-RFP dots; also recorded: strong reduction of p62 fluorescent signals | 21 ± 1.5% | – | –
NCCCCNCCCN [Spermidine, N′-(3-aminopropyl)butane-1,4-diamine] | marked accumulation of LC3 fluorescent dots | markedly reduced p62 fluorescent dots and fluorescent signals | 5 ± 0.11% | increased the levels of the lipidated LC3-II form | stimulated autophagy-mediated degradation of SQSTM1
CNCCCNCCCCN [N1-methylspermidine] | – | – | – | increased the levels of the lipidated LC3-II form | stimulated autophagy-mediated degradation of SQSTM1
